What is called IC50 is the concentration that inhibits the measured activity by half.

The source of these data is US7709473B2, “Substituted 2H-[1,2,4]triazolo[4,3-a]pyrazines as GSK-3 inhibitors” (Pfizer Inc., priority 2004, dated 2010).

The target in the test is GSK-3 (Homo sapiens, UniProt P49841). Description: GSK-3 inhibition, cell-free 33P-ATP peptide substrate SPA assay. The following applies: read-out: inhibitory activity against GSK-3, expressed as IC50. It counts as biochemical. How it is done: The specific activities of the compounds of formula (I) in inhibiting GSK-3 can be determined in both cell-free and cell-based assays, both of which have been previously described in the relevant art. See, for example, U.S. Pat. Nos. 6,417,185 and 6,489,344, the disclosures of which are incorporated herein by reference in their entirety.
Sequence of GSK-3 (P49841 whole entry): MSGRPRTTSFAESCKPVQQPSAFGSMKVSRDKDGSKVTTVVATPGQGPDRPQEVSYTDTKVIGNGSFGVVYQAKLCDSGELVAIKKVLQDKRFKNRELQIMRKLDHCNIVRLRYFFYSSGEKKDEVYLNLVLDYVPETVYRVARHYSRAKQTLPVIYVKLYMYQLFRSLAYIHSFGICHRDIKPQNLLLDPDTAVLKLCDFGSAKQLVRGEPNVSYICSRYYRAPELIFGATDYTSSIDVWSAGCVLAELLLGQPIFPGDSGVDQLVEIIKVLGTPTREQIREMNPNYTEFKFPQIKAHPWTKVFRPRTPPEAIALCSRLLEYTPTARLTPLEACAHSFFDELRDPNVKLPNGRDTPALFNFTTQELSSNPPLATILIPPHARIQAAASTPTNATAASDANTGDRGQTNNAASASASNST
A cell-free testing assay can be generally carried out by incubating GSK-3 with a peptide substrate, radiolabeled ATP (e.g., for example, γ^33P- or γ^32P-ATP, both of which are available from Amersham; Arlington Heights, Ill.), magnesium ions, and the compound to be assayed. […] The amount of γ^33P or γ^32P remaining in each well after washing is then quantified to determine the amount of radiolabeled phosphate incorporated into the peptide substrate. […]
Another example of a GSK-3 testing assay, similar to the one described hereinabove, is as follows: enzyme activities are assayed as the incorporation of ^33P from the gamma phosphate of ^33P-ATP (Amersham; Arlington Heights, Ill.; catalog #AH-9968) into biotinylated peptide substrate PKTP-KKAKKL. […] The final concentration of ATP is 0.5 μM (final specific radioactivity of 4 μCi/nmol), and the final concentration of substrate is 0.75 μM. […] Radioactivity associated with the beads is then quantified by standard scintillation counting. […]

On to `COc1ccc(OCCNc2nc(C(C)(C)C)cn3c(=O)[nH]nc23)cc1` [Example 218, 6-tert-Butyl-8-[2-(4-methoxy-phenoxy)-ethylamino]-2H-[1,2,4]triazolo[4,3-a]pyrazin-3-one], for which the IC50 was 4.84 nM.
